Calls of active or inactive are those of the source. No cut-off for these calls is given here.
How the values were obtained:
MCF7 [1] = experiment: Antiproliferative activity against estrogen receptor dependent human MCF7 cells after 72 hrs by MTT assay; format: functional, cell-based; settings: MCF7, 72 h
MDA-MB-231 [2] = experiment: Antiproliferative activity against hormone independent human MDA-MB-231 cells upto 100 nM after 72 hrs by MTT assay; format: functional, cell-based
Estrogen receptor beta = Estrogen receptor beta (Homo sapiens, UniProt Q92731); experiment: biochemical
Description: Displacement of fluorescein labeled estradiol from human recombinant ERbeta expressed in baculovirus infected insect cells by fluorescence polarization assay

Estrogen receptor = molecular target: T1, Estrogen receptor (Homo sapiens, UniProt P03372); experiment: biochemical
T1 sequence (P03372 whole entry): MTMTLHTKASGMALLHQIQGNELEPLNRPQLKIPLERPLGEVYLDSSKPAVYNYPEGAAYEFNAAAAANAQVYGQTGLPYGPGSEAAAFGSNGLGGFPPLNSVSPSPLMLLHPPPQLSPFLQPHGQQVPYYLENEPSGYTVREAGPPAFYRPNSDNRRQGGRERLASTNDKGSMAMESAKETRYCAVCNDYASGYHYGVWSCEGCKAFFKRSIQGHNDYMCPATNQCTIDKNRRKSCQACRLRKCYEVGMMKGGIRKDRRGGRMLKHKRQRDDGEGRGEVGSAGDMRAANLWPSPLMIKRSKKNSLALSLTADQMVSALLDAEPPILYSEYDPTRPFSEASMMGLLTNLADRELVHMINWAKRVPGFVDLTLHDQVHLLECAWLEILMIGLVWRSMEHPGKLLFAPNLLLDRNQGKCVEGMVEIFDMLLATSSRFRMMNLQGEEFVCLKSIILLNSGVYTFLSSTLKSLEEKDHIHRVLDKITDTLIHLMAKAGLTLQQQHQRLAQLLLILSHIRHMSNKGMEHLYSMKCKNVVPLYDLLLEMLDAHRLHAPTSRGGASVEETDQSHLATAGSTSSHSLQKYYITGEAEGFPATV
Description: Displacement of fluorescein labeled estradiol from human recombinant ERalpha expressed in baculovirus infected insect cells by fluorescence polarization assay

MCF7 [3] = experiment: Antiproliferative activity against estrogen receptor dependent human MCF7 cells at 10 uM after 72 hrs by LDH assay; format: functional
MDA-MB-231 [4] = experiment: Antiproliferative activity against hormone independent human MDA-MB-231 cells after 72 hrs by MTT assay; format: functional, cell-based; settings: MDA-MB-231, 72 h
Ishikawa [5] = experiment: Estrogenic stimulatory activity in human Ishikawa cells assessed as alkaline phosphatase activity at 1 uM after 72 hrs in absence of estradiol; format: functional
Ishikawa [6] = experiment: Antiestrogenic activity in human Ishikawa cells assessed as inhibition of estrogen-induced alkaline phosphatase activity after 72 hrs; format: functional, cell-based

Chain of Estrogen receptor beta (Q92731 whole entry): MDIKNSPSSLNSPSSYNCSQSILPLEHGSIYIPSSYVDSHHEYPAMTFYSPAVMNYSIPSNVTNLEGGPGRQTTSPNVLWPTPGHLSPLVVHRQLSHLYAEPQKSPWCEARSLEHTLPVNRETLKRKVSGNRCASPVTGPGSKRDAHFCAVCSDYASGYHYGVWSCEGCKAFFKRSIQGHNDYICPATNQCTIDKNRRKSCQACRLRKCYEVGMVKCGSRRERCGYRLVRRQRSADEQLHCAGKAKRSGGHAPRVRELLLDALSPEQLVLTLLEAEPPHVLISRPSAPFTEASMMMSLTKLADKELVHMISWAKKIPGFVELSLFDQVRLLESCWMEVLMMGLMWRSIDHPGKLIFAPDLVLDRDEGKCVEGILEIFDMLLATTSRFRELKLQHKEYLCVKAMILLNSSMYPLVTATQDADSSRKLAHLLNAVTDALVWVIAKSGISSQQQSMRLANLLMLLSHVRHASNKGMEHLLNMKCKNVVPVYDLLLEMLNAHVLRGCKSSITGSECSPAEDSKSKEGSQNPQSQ

SMILES	IC50 (MCF7 [1]) [µM]	Activity (MDA-MB-231 [2])	IC50 (Estrogen receptor beta) [µM]	IC50 (Estrogen receptor) [µM]	Activity (MCF7 [3]) [%]	IC50 (MDA-MB-231 [4]) [µM]	Activity (Ishikawa [5]) [%]	IC50 (Ishikawa [6]) [µM]
Oc1cccc(C2=C(c3ccc(OCCN4CCCC4)cc3)c3ccc(F)cc3OCC2)c1	0.359	inactive	0.006	0.014				
CS(=O)(=O)c1ccc(C2=C(c3ccc(OCCN4CCCC4)cc3)c3ccc(F)cc3OCC2)cc1	4.56	inactive	> 15	> 15				
COc1ccc2c(c1)OCCC=C2c1ccc(O)cc1					17			
Fc1ccc(C2=C(c3ccc(OCCN4CCCC4)cc3)c3ccc(F)cc3OCC2)cc1	0.45	inactive	0.262	0.126				
Oc1ccc(C2=C(c3ccc(OCCN4CCCC4)cc3)c3ccc(O)cc3OCC2)cc1	0.0119	inactive	0.0029	0.0084	11	2.6	6	0.0208
Oc1ccc(C2=CCCOc3ccccc32)cc1					17			
Oc1ccc(C2=C(c3ccc(OCCN4CCCC4)cc3)CCOc3cc(F)ccc32)cc1	6.5	inactive	0.0173	0.00557			23	0.216
c1ccc(C2=C(c3ccc(OCCN4CCCC4)cc3)c3ccccc3OCC2)cc1	1.58	inactive			8			
Oc1ccc(C2=C(c3ccc(OCCN4CCCCC4)cc3)c3ccc(F)cc3OCC2)cc1	0.156	inactive	0.00878	0.0065				
Oc1ccc(C2=C(c3ccc(OCCN4CCCC4)cc3)c3ccc(F)cc3OCC2)cc1	0.0214	inactive	0.0007	0.0104		6.75	9.7	0.194
CC/C(=C(\c1ccccc1)c1ccc(OCCN(C)C)cc1)c1ccccc1 [TAMOXIFEN]	4.12	inactive					16.5	
CCC(=C(c1ccc(O)cc1)c1ccc(OCCN(C)C)cc1)c1ccccc1	0.107	inactive						
Fc1ccc2c(c1)OCCC(c1ccccc1)=C2c1ccc(OCCN2CCCC2)cc1	1.87	inactive	0.031	0.0162				
COc1ccc2c(c1)OCCC(c1ccc(O)cc1)=C2c1ccc(OCCN2CCCCC2)cc1	1.54	inactive						
CN(C)CCOc1ccc(C2=C(c3cccs3)CCOc3ccccc32)cc1	16.7	inactive						
